Experimental data published in article PMC10754745, “In silico prediction and in vitro assessment of novel heterocyclics with antimalarial activity” (Parasitology Research, 2023).
Values belong to the molecule of their own block, whether it stands above or below them.

Tests used:
[1] = test system: P. falciparum; parameters: method as in Shahinas et al. [2013]; conditions: in vitro against P. falciparum; ref Shahinas et al. [2013]; cited from earlier work
[2] = test system: human RBCs; assay: Hemolytic activity test; type: cell-based; conditions: human RBCs 2% hematocrit, 72 h, 37 °C, tested at 200, 100, 50, 25 μM
Description: The ability to induce membrane damage was assessed by testing the hemolytic activity of those compounds showing inhibition of parasite growth. The assay was adapted from Sousa et al. ([2021]) with modifications. Briefly, 180 μL of human RBCs adjusted to 2% hematocrit in phosphate buffered saline (PBS) were placed into a 96-well microplate and subsequently exposed to 200 μM of each selected compound. As a positive control, 20 μL of 1% sodium dodecyl sulfate (SDS) was added, and a non-drug well was included as a negative control. Free hemoglobin was measured after 72 h of incubation at 37 °C by spectrophotometry at 540 nm (Cytation 3 M, Biotek). Nonspecific absorbance was corrected by subtracting the blank (PBS). Determinations were done by triplicate in at least two independent experiments. Compounds with hemolytic activity at 200 μM were further tested at 100 μM, 50 μM, and 25 μM dilutions.

[3] = test system: P. falciparum 3D7; assay: Growth inhibition of P. falciparum 3D7 cultures, SYBR Green assay; type: cell-based, Plasmodium falciparum; conditions: P. falciparum 3D7, 72 h, triplicate
Description: Antimalarial activity of the selected compounds was assessed by growth inhibition assays. P. falciparum 3D7 parasites (a chloroquine-sensitive strain) kindly supplied by the Biodefense and Emerging Infections Research Resources Repository (BEI resources, NIAID, NIH, USA) were cultured by the Trager-Jensen method (Trager and Jensen [1976]; Moll et al. [2013]) with modifications. Briefly, parasite-infected red blood cells (RBCs) were kept in continuous culture in complete culture medium (CCM) containing RPMI 1640 (GIBCO), 25 mM hydroxypipazine-N’-2-ethane sulfonic acid (HEPES, Sigma), and 25 μg/mL gentamicin. […] [2013]). Parasite growth was monitored by preparing Giemsa-stained smears. The parasitemia was determined by examination of at least 10 high power magnification fields (hpf) (Moll et al. [2013]), and levels of parasitemia were kept between 5 and 10%. Artemisinin (Sigma) and chloroquine diphosphate salt (Sigma) were used as control drugs. […] Susceptibility assays were performed by the SYBR Green method with modifications (Kato et al. [2018]). Briefly, P. falciparum-infected RBCs cultured under standard conditions were plated at about 2% parasitemia (2% hematocrit), in 96-well microplates, and 10 μM of each compound was added; the final DMSO concentration was less than 0.1%. Parasites were initially incubated for 72 h before addition of lysis buffer (20mM Tris-HCl, 5mM EDTA, 0.008% saponin, 0.08% Triton X-100) supplemented with 0.04% SYBR™ Green I Nucleic Acid (10,000 × in DMSO, Invitrogen), then the microplates were returned to culture for 4 h at room temperature and read in a microplate fluorimeter (Cytation 3 M, Biotek) at excitation 485 nm–emission 530 nm. A control drug for total growth inhibition, a non-drug well and uninfected RBCs were included as positive and negative controls, respectively. The percentage (%) of inhibition was calculated as follows: 1-(fluorescence of treated/nontreated cultures) × 100. […] To do this, parasite cultures were exposed to serial two-fold dilutions of the test compounds ranging from 10 to 0.078 μM. Controls of uninfected RBCs and CQ-treated infected RBCs were included, and the assays were performed in triplicate.

[4] = test system: Galleria mellonella; assay: In vivo toxicity in Galleria mellonella larvae; parameters: G. mellonella Toxicity class: scale not given here; conditions: class from LD50 in larvae
Description: (§1) In vivo toxicity was performed using the invertebrate Galleria mellonella model. Healthy, beige larvae weighing 200–250 mg were obtained from the Entomology laboratory at the University and selected for toxicity assays. Groups of ten six-instar larvae were inoculated with 10 μL or 20 μL of each compound at concentrations equivalent to 3000 mg/kg and incubated at 37 °C in darkness. […] The larvae were initially injected with 1000 mg/kg, and if most larvae (> 60%) survived after 5 days, the assay was performed using higher doses up to 3000 mg/kg (Piatek et al. [2021]).

[5] = In vivo toxicity in Galleria mellonella larvae; parameters: G. mellonella Toxicity class: scale not given here; conditions: Galleria mellonella, in vivo, other: injection; larvae, injection, survival monitored 5 days; read-out: G. mellonella LD50
Description: as §1

[6] = Plasmodium falciparum, 3D7, 72 h

SMILES: CC(C)NCCCn1c(Sc2cc3c(cc2I)OCO3)nc2c(N)ncnc21 [PU-H71]
IC50 [1]: 0.11 µM

SMILES: O=C(/C=C/c1cccc(Nc2ccnc3cc(Cl)ccc23)c1)c1ccc2c(c1)OCO2 [UV7, Quinolinyl-amino chalcone]
Hemolytic activity [2]: > 200 µM | IC50 [3]: ~1 µM | IC50 ([3]; listed as 7): 1.07 ± 0.2 µM | IC50 [3, 6]: > 1 µM | G. mellonella Toxicity class [4]: 5 | LD50 at 5 days [5]: 2000 mg/kg

IC50 [3, 6]: 1.58 to 2.75 µM
SMILES: CC(=O)N1N=C(c2cccc(Nc3ccncc3)c2)CC1c1ccc(Cl)cc1 (stereo not drawn) [UV285]

SMILES: CC(=O)N1N=C(c2cccc(Nc3ccncc3)c2)CC1c1ccc(Br)cc1 (stereo not drawn) [UV286]
Hemolytic activity [2]: >200 µM | IC50 [3]: < 1 µM | IC50 ([3]; listed as 286): 0.444 ± 0.1 µM | G. mellonella Toxicity class [4]: 4 | LD50 at 5 days [5]: 1500 mg/kg

IC50 [3, 6]: 1.58 to 2.75 µM
SMILES: COc1ccc(C2CC(c3cccc(Nc4ccncc4)c3)=NN2C(C)=O)cc1 (stereo not drawn) [UV287]

IC50 [3, 6]: 1.58 to 2.75 µM
SMILES: CC(=O)N1N=C(c2cccc(Nc3ccncc3)c2)CC1c1ccc(F)cc1 (stereo not drawn) [UV288]

IC50 [3, 6]: 1.58 to 2.75 µM
SMILES: CC(=O)N1N=C(c2cccc(Nc3ccncc3)c2)CC1c1ccc2c(c1)OCO2 (stereo not drawn) [UV290]

IC50 [3, 6]: 1.58 to 2.75 µM
SMILES: CC(=O)N1N=C(c2cccc(Nc3ccncc3)c2)CC1c1ccc(C)cc1 (stereo not drawn) [UV291]

SMILES: CC(=O)N1N=C(c2cccc(Nc3ccncc3)c2)CC1c1ccccc1 (stereo not drawn) [UV292]
Hemolytic activity [2]: >100 µM | IC50 [3]: 0.66 ± 0.2 µM | IC50 [3, 6]: < 1 µM | G. mellonella Toxicity class [4]: 5 | LD50 at 5 days [5]: 3000 mg/kg

SMILES: COc1ccc(C2CC(c3cccc(Nc4ccncc4)c3)=NN2c2ccccc2)cc1 (stereo not drawn) [UV296]
Hemolytic activity [2]: induced RBC hemolysis at lower concentrations | Hemolytic activity ([2]; listed as 296): >25 µM | IC50 [3]: 0.629 ± 0.1 µM | IC50 [3, 6]: < 1 µM | G. mellonella Toxicity class [4]: 5 | LD50 at 5 days [5]: 2000 mg/kg

SMILES: COc1cc(C2CC(c3cccc(Nc4ccncc4)c3)=NN2c2ccccc2)cc(OC)c1OC (stereo not drawn) [UV297]
Hemolytic activity [2]: >200 µM | IC50 [3]: 0.991 ± 0.28 µM | IC50 [3, 6]: < 1 µM | G. mellonella Toxicity class [4]: 5 | LD50 at 5 days [5]: 2000 mg/kg

SMILES: Clc1ccc(N2N=C(c3cccc(Nc4ccncc4)c3)CC2c2ccc3c(c2)OCO3)cc1 (stereo not drawn) [UV306, 4-(pyridyl-aminophenyl)-methyledioxyphenyl-N-(4-chlorophenyl)pyrazoline]
Hemolytic activity [2]: 25 µM | IC50 [3]: 0.71 ± 0.1 µM | IC50 [3, 6]: < 1 µM | G. mellonella Toxicity class [4]: 5 | LD50 at 5 days [5]: 2000 mg/kg

SMILES: Nc1ncnc2c1N=C(c1cccc(Nc3ccncc3)c1)CC(c1ccccc1)N2 (stereo not drawn) [UV712, Pyridyl-amino-pyrimido-diazepine]
Hemolytic activity [2]: >200 µM | IC50 [3]: ~1 µM | IC50 ([3]; listed as 712): 1.08 ± 0.2 µM | IC50 [3, 6]: > 1 µM | G. mellonella Toxicity class [4]: 4 | LD50 at 5 days [5]: 1000 mg/kg

SMILES: Nc1nc(N)c2c(n1)NC(c1ccc(Cl)cc1)CC(c1cccc(Nc3ccncc3)c1)=N2 (stereo not drawn) [UV797, Pyridyl-amino-pyrimido-diazepine]
Hemolytic activity [2]: > 200 µM | IC50 [3]: 0.353 ± 0.019 µM | G. mellonella Toxicity class [4]: 5 | LD50 at 5 days [5]: 2000 mg/kg

SMILES: Cc1ccc(C2CC(c3cccc(Nc4ccncc4)c3)=Nc3c(N)nc(N)nc3N2)cc1 (stereo not drawn) [UV801, Pyridyl-amino- pyrimido- diazepine]
Hemolytic activity [2]: >200 µM | IC50 [3]: 0.537 ± 0.03 µM | IC50 [3, 6]: < 1 µM | G. mellonella Toxicity class [4]: 5 | LD50 at 5 days [5]: 2000 mg/kg

SMILES: Nc1nc(N)c2c(n1)NC(c1ccccc1)CC(c1cccc(Nc3ccncc3)c1)=N2 (stereo not drawn) [UV802, Pyridyl-amino-pyrimido-diazepina]
Hemolytic activity [2]: > 200 µM | IC50 [3]: 0.178 ± 0.04 µM | G. mellonella Toxicity class [4]: 5 | LD50 at 5 days [5]: 2000 mg/kg
